Measured values as given in patent US9506032B2, “Engineered biological pacemakers” (The United States of America, as represented by the …, priority 2009, dated 2016).

What was measured:
Assay type in all cases: cell-based, Mouse
[1] = test system: spontaneously beating ESCs; test: Spontaneous action potentials and Ca2+ signals in intact spontaneously beating ESCs (patch clamp with confocal imaging); conditions: for LCRs (effect of intervention) / spontaneous AP firing and Ca2+ transients: intact spontaneously beating ESCs (FIG. 6)
Source text: (§1) Mouse ES cells of line R1 were differentiated into cardiac cells using the “hanging drop” technique. ESCs were isolated from in vitro-grown embryoid bodies by microdissection followed by collagenase treatment. […] At day 2, EBs were transferred into bacteriological petri dishes and cultured in suspension until day 5. […] Individual spontaneously beating ESCs were isolated by microdissection and collagenase treatment.
ESCs differentiated in vitro for 9 to 20 days after plating of 7 days old embryoid bodies were studied during continuous superfusion with solution containing in mmol/L: 140 NaCl, 5.4 KCl, 5 HEPES, 2 MgCl2, 1.8 CaCl2, 10 glucose, (pH adjusted to 7.4 with NaOH). Selection of the cells for patch-clamp technique was based on spontaneous beating. Action potentials were measured at physiological temperature (35±2° C.) with standard current-clamp technique (Axopatch 200, Axon Instruments, Foster City, Calif., USA), pCLAMP7 software was used for data acquisition and analysis (Axon Instruments). Perforated patch-clamp technique was performed with β-escin added to the electrode solution. Patch pipette solution contained in mmol/L: 120 K-gluconate, 5 NaCl, 5 Mg-ATP, 5 HEPES, 20 KCl, 3 Na2ATP (pH adjusted to 7.2 with NaOH). […] Patch pipette filling solution contained (in mmol/L) 120 CsCl, 10 NaCl, 20 tetraethylammonium chloride, 5 MgATP, and 20 HEPES (pH 7.2 adjusted with CsOH), and 100 μmol/L fluo-4 pentapotassium salt (Molecular Probes). Four conditioning pulses of 100 ms and 0 mV were delivered at 1.0 Hz prior to each test voltage pulse to load the SR with Ca^2+.
In whole cell configuration, fluo-4 was added directly to the pipette solution.
(§2) Fluo-4 measurements are presented in terms of F/F0 (normalized Ca^2+ signal). […] were analyzed by programs developed using Delfi-7 software. The duration and width of LCRs were measured as the time at half-maximal amplitude of the normalized signal.

[2] = test system: Na+/Ca2+ exchanger (NCX) current in ESCs; test: Inward NCX current spikes in ESCs voltage-clamped at -50 mV; conditions: voltage clamp −50 mV, Na+ substituted by Li+ inhibiting NCX; 10 to 20 pA in control
Description: ESCs differentiated in vitro for 9 to 20 days after plating of 7 days old embryoid bodies were studied during continuous superfusion with solution containing in mmol/L: 140 NaCl, 5.4 KCl, 5 HEPES, 2 MgCl2, 1.8 CaCl2, 10 glucose, (pH adjusted to 7.4 with NaOH). Selection of the cells for patch-clamp technique was based on spontaneous beating. Action potentials were measured at physiological temperature (35±2° C.) with standard current-clamp technique (Axopatch 200, Axon Instruments, Foster City, Calif., USA), pCLAMP7 software was used for data acquisition and analysis (Axon Instruments). Perforated patch-clamp technique was performed with β-escin added to the electrode solution. Patch pipette solution contained in mmol/L: 120 K-gluconate, 5 NaCl, 5 Mg-ATP, 5 HEPES, 20 KCl, 3 Na2ATP (pH adjusted to 7.2 with NaOH). Recording of L-type Ca^2+ current (ICaL) simultaneously with Ca^2+ signal imaging (see Example 3) were performed under whole cell voltage clamp. […]
When activation of ion channels and APs are disabled by voltage clamp at −50 mV, spontaneous LCRS for at least 5 s were observed (FIG. 4, Panel A). […] It was determined under the voltage clamp whether LCRs can cause the current spikes via NCX activation. […]

saponin-skinned ESCs = test: Local Ca2+ releases (LCRs) in saponin-skinned ESCs, confocal line-scan Ca2+ imaging; conditions: for LCRs (effect of drug): skinned ESCs, 150 nmol/L free [Ca2+]
Source text: as §1, §2

## CC(=O)OCOC(=O)CN(CC(=O)OCOC(C)=O)c1ccccc1OCCOc1ccccc1N(CC(=O)OCOC(C)=O)CC(=O)OCOC(C)=O [BAPTA-AM]
[1]
  LCRs (effect of intervention): inhibited
  spontaneous AP firing and Ca2+ transients: became irregular, culminating in cessation of automaticity or in extremely rare and irregular beating

## Nc1ncnc2c1nc(Sc1ccc(Cl)cc1)n2[C@@H]1O[C@@H]2COP(=O)(O)O[C@H]2[C@H]1O [CPT-cAMP]
[1]; cells with irregular beating, after 300 μmol/L CPT-cAMP, before 23.98+/−4.82%, P<0.05
  cycle length (CL) variability index (100%×CL standard deviation/CL mean): 11.23+/−2.68%
[1]; irregularly beating ESCs, 300 μmol/L CPT-cAMP
  rhythmicity of beating: converted irregularly beating ESCs to rhythmic pacemakers

## O=S(=O)(NCCNC/C=C/c1ccc(Br)cc1)c1cccc2cnccc12 [H89]
[1]; spontaneously beating ESCs, 10 μmol/L
  APs / automaticity on PKA inhibition: irregUlar APs or cessation of automaticity

## [Li+] [Li^+]
[1]; Na+-free lithium solution applied ~1 s, zero-current clamp, rhythmic LCRs continued
  spontaneous excitation (APs): excitation failure
[2]
  high-amplitude inward current spikes: disappeared

## Nc1ncnc2c1ncn2[C@@H]1O[C@@H]2COP(=O)(O)O[C@H]2[C@H]1O [cAMP, cyclic AMP]
saponin-skinned ESCs; saponin-skinned ESCs, stimulation with 20 μmol/L cAMP
  local Ca2+ oscillators: emergence of new local Ca^2+ oscillators in many cell locations

## CCCCNc1ccc(C(=O)OCCN(C)C)cc1 [tetracaine]
saponin-skinned ESCs; 1 mmol/L drug
  LCRs (effect of drug): inhibited

## C/C=C(/C)C(=O)O[C@H]1C(C)=C2[C@H]([C@@H]1OC(=O)CCCCCCC)[C@@](C)(OC(C)=O)C[C@H](OC(=O)CCC)[C@@]1(O)[C@H]2OC(=O)[C@@]1(C)O [thapsigargin]
saponin-skinned ESCs; 10 μmol/L drug
  LCRs (effect of drug): inhibited
[1]
  LCRs (effect of intervention): inhibited
  spontaneous AP firing and Ca2+ transients: became irregular, culminating in cessation of automaticity or in extremely rare and irregular beating

## ryanodine
saponin-skinned ESCs; 10 μmol/L drug
  LCRs (effect of drug): inhibited
[1]
  LCRs (effect of intervention): inhibited
  spontaneous AP firing and Ca2+ transients: became irregular, culminating in cessation of automaticity or in extremely rare and irregular beating
